Here are results for 26 compounds from patent US20240336608A1, “IL4I1 INHIBITORS AND METHODS OF USE” (Merck Sharp & Dohme LLC, priority 2023, published 2024).

As usually defined, the EC50 is the concentration giving half of the maximal effect.

The target of the assay is T1, recombinant IL4I1 (Homo sapiens, UniProt Q96RQ9).
T1 construct: purchased R&D Systems 5684-AO-020
T1 sequence (Q96RQ9 22-567): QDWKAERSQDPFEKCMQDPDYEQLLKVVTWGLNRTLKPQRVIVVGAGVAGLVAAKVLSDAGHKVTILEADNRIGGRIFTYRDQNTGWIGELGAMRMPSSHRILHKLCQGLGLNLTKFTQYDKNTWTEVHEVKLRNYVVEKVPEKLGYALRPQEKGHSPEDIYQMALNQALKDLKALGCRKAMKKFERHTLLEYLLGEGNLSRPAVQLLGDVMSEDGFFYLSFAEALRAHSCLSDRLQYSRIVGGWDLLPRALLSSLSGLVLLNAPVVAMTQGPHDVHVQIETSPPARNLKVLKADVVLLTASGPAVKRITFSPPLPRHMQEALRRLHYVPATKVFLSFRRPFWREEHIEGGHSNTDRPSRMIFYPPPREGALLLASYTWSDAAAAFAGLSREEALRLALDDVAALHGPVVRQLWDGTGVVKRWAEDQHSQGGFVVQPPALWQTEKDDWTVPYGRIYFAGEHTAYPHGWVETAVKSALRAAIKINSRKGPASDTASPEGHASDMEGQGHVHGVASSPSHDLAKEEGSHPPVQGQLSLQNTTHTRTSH
Put plainly: IL4I1 Enzymatic Assay (Amplex Red/HRP coupled detection of H2O2, fluorescence). The format is biochemical. As to conditions: 1 nM recombinant IL4I1; four-hour pre-incubation with compound; 1 mM each Phe, Tyr, Trp; ten-point titration. The gist of the method:
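Recombinant IL4I1 (1 nM final) pre-incubated 4 h at ambient temperature with compound (0.5% DMSO) in 50 mM Hepes pH 7.0, 0.005% Tween20; reaction started with 1 mM each Phe/Tyr/Trp plus excess Amplex Red/HRP, run 120 min. H2O2 read as resorufin fluorescence; EC50 from 10-point four-parameter fit.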

With `Cc1ccc(-n2cc(C(=O)NCc3nnc(-c4cn[nH]c4)s3)nn2)c(C)n1` [Example 300, N-((5-(1H-pyrazol-4-yl)-1,3,4-thiadiazol-2-yl)methyl)-1-(2,6-dimethylpyridin-3-yl)-1H-1,2,3-triazole-4-carboxamide], the EC50 came to 22 nM.
As for `Cc1nc(OC(F)F)ccc1-n1cc(C(=O)NCc2nnc(-c3ccccc3)s2)nn1` [Example 301, 1-(6-(difluoromethoxy)-2-methylpyridin-3-yl)-N-((5-phenyl-1,3,4-thiadiazol-2-yl)methyl)-1H-1,2,3-triazole-4-carboxamide], the figure is 8 nM; as for `O=C(NCc1nnc(-c2ccccc2)s1)c1cn(C[C@H](F)CO)nn1` [Example 302, (S)-1-(2-fluoro-3-hydroxypropyl)-N-((5-phenyl-1,3,4-thiadiazol-2-yl)methyl)-1H-1,2,3-triazole-4-carboxamide], 5 nM.
As for `C[C@H](CO)n1cc(C(=O)NCc2nnc(-c3ccccc3)s2)nn1` [Example 303, (R)-1-(1-hydroxypropan-2-yl)-N-((5-phenyl-1,3,4-thiadiazol-2-yl)methyl)-1H-1,2,3-triazole-4-carboxamide], the figure is 6 nM; as for `CC(C)n1cc(C(=O)NCc2nnc(-c3ccccc3)s2)nn1` [Example 304, 1-isopropyl-N-((5-phenyl-1,3,4-thiadiazol-2-yl)methyl)-1H-1,2,3-triazole-4-carboxamide], 4 nM.
Regarding `O=C(NCc1nnc(-c2ccccc2)s1)c1cn(C2CCOC2)nn1` (centres unmarked) [Example 305, N-((5-phenyl-1,3,4-thiadiazol-2-yl)methyl)-1-(tetrahydrofuran-3-yl)-1H-1,2,3-triazole-4-carboxamide], the concentration giving a half-maximal response (EC50) came to 29 nM.
Regarding `O=C(NCc1nnc(-c2ccccc2)s1)c1cnnn1C1CCOC1` (centres unmarked) [Example 306, N-((5-phenyl-1,3,4-thiadiazol-2-yl)methyl)-1-(tetrahydrofuran-3-yl)-1H-1,2,3-triazole-5-carboxamide], the 50% effective concentration (EC50) was 654 nM.
`O=C(NCc1nnc(-c2ccccc2)s1)c1cn(C2CS(=O)(=O)C2)nn1` [Example 307, 1-(1,1-dioxidothietan-3-yl)-N-((5-phenyl-1,3,4-thiadiazol-2-yl)methyl)-1H-1,2,3-triazole-4-carboxamide]: the EC50 turned out to be 73 nM.
As for `CS(=O)(=O)Cn1cc(C(=O)NCc2nnc(-c3ccccc3)s2)nn1` [Example 308, 1-((methylsulfonyl)methyl)-N-((5-phenyl-1,3,4-thiadiazol-2-yl)methyl)-1H-1,2,3-triazole-4-carboxamide], the figure is 75 nM.
On to `O=C(NCc1nnc(-c2ccccc2)s1)c1cn(-c2ccncn2)nn1` [Example 309, N-((5-phenyl-1,3,4-thiadiazol-2-yl)methyl)-1-(pyrimidin-4-yl)-1H-1,2,3-triazole-4-carboxamide], for which the EC50 turned out to be 720 nM.
Under `O=C(NCc1nnc(-c2ccccc2)s1)c1cn(-c2ccccn2)nn1` [Example 310, N-((5-phenyl-1,3,4-thiadiazol-2-yl)methyl)-1-(pyridin-2-yl)-1H-1,2,3-triazole-4-carboxamide] stands 182 nM.
Under `O=C(NCc1nnc(-c2ccccc2)s1)c1cn(-c2cnccn2)nn1` [Example 311, N-((5-phenyl-1,3,4-thiadiazol-2-yl)methyl)-1-(pyrazin-2-yl)-1H-1,2,3-triazole-4-carboxamide] stands 294 nM; under `CC(C)(C(N)=O)n1cc(C(=O)NCc2nnc(-c3ccccc3)s2)nn1` [Example 312, 1-(1-amino-2-methyl-1-oxopropan-2-yl)-N-((5-phenyl-1,3,4-thiadiazol-2-yl)methyl)-1H-1,2,3-triazole-4-carboxamide], 12 nM.
Under `CC(C)(C#N)n1cc(C(=O)NCc2nnc(-c3ccccc3)s2)nn1` [Example 313, 1-(2-cyanopropan-2-yl)-N-((5-phenyl-1,3,4-thiadiazol-2-yl)methyl)-1H-1,2,3-triazole-4-carboxamide] stands 26 nM.
Take `Cc1ccc(-n2cc(C(=O)NCc3cc(-c4ccncc4)no3)nn2)c(C)n1` [Example 314, 1-(2,6-dimethylpyridin-3-yl)-N-((3-(pyridin-4-yl)isoxazol-5-yl)methyl)-1H-1,2,3-triazole-4-carboxamide]: the EC50 was determined as 12 nM.
As for `Cc1ncccc1-n1cc(C(=O)NCc2nnc(-c3ccccc3)s2)nn1` [Example 315, 1-(2-methylpyridin-3-yl)-N-((5-phenyl-1,3,4-thiadiazol-2-yl)methyl)-1H-1,2,3-triazole-4-carboxamide], the figure is 86 nM; as for `O=C(NCc1nnc(-c2ccccc2)s1)c1cn(-c2cncnc2)nn1` [Example 316, N-((5-phenyl-1,3,4-thiadiazol-2-yl)methyl)-1-(pyrimidin-5-yl)-1H-1,2,3-triazole-4-carboxamide], 241 nM; as for `CC(C)(O)c1cc(C(=O)NCc2nnc(-c3ccccc3)s2)no1` [Example 317, 5-(2-hydroxypropan-2-yl)-N-((5-phenyl-1,3,4-thiadiazol-2-yl)methyl)isoxazole-3-carboxamide], 21 nM.
Under `CC(C)(C(N)=O)n1cc(C(=O)NCc2nnc(-c3ccncc3)s2)nn1` [Example 320, 1-(1-amino-2-methyl-1-oxopropan-2-yl)-N-((5-(pyridin-4-yl)-1,3,4-thiadiazol-2-yl)methyl)-1H-1,2,3-triazole-4-carboxamide] stands 27 nM.
Under `CNC(=O)C(C)(C)n1cc(C(=O)NCc2nnc(-c3ccncc3)s2)nn1` [Example 321, 1-(2-methyl-1-(methylamino)-1-oxopropan-2-yl)-N-((5-(pyridin-4-yl)-1,3,4-thiadiazol-2-yl)methyl)-1H-1,2,3-triazole-4-carboxamide] stands 51 nM; under `CNC(=O)C(C)(C)n1cc(C(=O)NCc2nnc(-c3ccccc3)s2)nn1` [Example 322, 1-(2-methyl-1-(methylamino)-1-oxopropan-2-yl)-N-((5-phenyl-1,3,4-thiadiazol-2-yl)methyl)-1H-1,2,3-triazole-4-carboxamide], 26 nM; under `CC(C)(O)Cn1cc(C(=O)NCc2nnc(-c3ccccc3)s2)nn1` [Example 323, 1-(2-hydroxy-2-methylpropyl)-N-((5-phenyl-1,3,4-thiadiazol-2-yl)methyl)-1H-1,2,3-triazole-4-carboxamide], 205 nM.
In the case of `Cc1ccc(-n2cc(C(=O)NCc3nnc(C4CCCCC4)s3)nn2)c(C)n1` [Example 324, N-((5-cyclohexyl-1,3,4-thiadiazol-2-yl)methyl)-1-(2,6-dimethylpyridin-3-yl)-1H-1,2,3-triazole-4-carboxamide], the EC50 was found to be 274 nM.
Consider `Cc1ccc(-n2cc(C(=O)NCc3nnc(C4CCCC4)s3)nn2)c(C)n1` [Example 325, N-((5-cyclopentyl-1,3,4-thiadiazol-2-yl)methyl)-1-(2,6-dimethylpyridin-3-yl)-1H-1,2,3-triazole-4-carboxamide], for which the EC50 came out at 274 nM.
As for `Cc1ccc(-n2cc(C(=O)NCc3ccc(C4CCCCC4)nn3)nn2)c(C)n1` [Example 326, N-((6-cyclohexylpyridazin-3-yl)methyl)-1-(2,6-dimethylpyridin-3-yl)-1H-1,2,3-triazole-4-carboxamide], the figure is 263 nM; as for `CC(C)(O)c1cc(C(=O)NCc2nnc(-c3ccccc3)s2)on1` [Example 328, 3-(2-hydroxypropan-2-yl)-N-((5-phenyl-1,3,4-thiadiazol-2-yl)methyl)isoxazole-5-carboxamide], 306 nM.
